According to patent US9227995B2, “Peptides” (DRUG DISCOVERY LABORATORY AS, priority 2010, dated 2016):

Assay: aqueous solubility of the peptide
Assay type: physicochemical
Settings: water; stated as significantly higher compared to acyclic 21

- solubility: > 1000 µM
SMILES: COC(=O)C(C)(C)NC(=O)[C@@H]1COCc2cn(nn2)CCC[C@H](NC(=O)C(C)(C)NC(=O)C(C)(C)NC(=O)C(C)(C)NC(=O)OC(C)(C)C)C(=O)NC(C)(C)C(=O)NC(C)(C)C(=O)N1 [compound 23, Methyl 2-methyl-2-((5S,14S)-8,8,11,11-tetramethyl-5-(2,2,6,6,9,9,12,12-octamethyl-4,7,10-trioxo-3-oxa-5,8,11-triazamidecanamido)-6,9,12-trioxo-16-oxa-1,7,10,13,19,20-hexaazabicyclo[16.2.1]henicosa-18 (21),19-dienecarboxamido)propanoate]
